Results as given in PMC7464785 (Pharmaceutics, 2020).
“And” between values parts separate entries of the source, which are not always exact repeats. Equal entries are not always repeated. Where two headings read alike, the source gives them in different places.

Key:
[1] = intravenous doses over 20 mg/kg and oral doses over 50 mg/kg; cited from earlier work
plasma proteins [2] = experiment: Plasma protein binding by equilibrium dialysis; format: in vitro ADME; conditions: plasma from control, G-ARF and C-ARF rats; data not shown
[3] = Pharmacokinetics after 1-min intravenous infusion to control, G-ARF and C-ARF rats; format: in vivo, Sprague–Dawley rats; conditions: for CLR estimated from free (unbound to plasma proteins) fractions in plasma: based on 20.7% plasma protein binding; for MRT / clearance / CL renal / half-life / Vd / AUC: Sprague-Dawley, rat, plasma, iv, 10 mg/kg; for clearance: read-out: CL (time-averaged total body clearance); for CL renal: read-out: CLR (time-averaged renal clearance); for half-life: read-out: Terminal half-life; for Vd: read-out: Vss; for AUC: time zero to infinity
Protocol: (§1) Rats were randomly divided into three groups: control, G-ARF, and C-ARF rats. Acute renal failure was induced in rats by intraperitoneal injection of gentamicin (100 mg/kg, dissolved in 0.9% NaCl-injectable solution) daily for 8 days or by a single intraperitoneal injection of cisplatin (7.5 mg/kg, dissolved in 0.9% NaCl-injectable solution), while control rats were injected with 0.9% NaCl-injectable solution only. […] BUN (Blood urea nitrogen) levels were measured in rats on the last day of induction using a BUN detection kit (Asan Pharmaceutical, Seoul, Korea). Rats with a urea nitrogen level of 36 mg/dL or higher were considered to be acute renal failure-induced and were selected for the study.
(§2) For oral and intravenous administration, pretreatment and surgical procedures were performed as previously reported. For oral study, the rats were restricted from eating food overnight but water was freely accessible. The next day, after anesthesia with ketamine at a dose of 100 mg/kg, polyethylene 50 tubes (Clay Adams, Parsippany, NJ, USA) was cannulated into the carotid artery for blood collection. For intravenous study, polyethylene 50 tubes were cannulated into the carotid artery and jugular vein for blood collection and drug administration, respectively. After surgery, rats were allowed to rest for 2–3 h to recover from anesthesia and were free in the individual metabolic cage during the experiment.
Blood samples (110 μL) were collected through the carotid artery at 0 (prior to drug infusion), 1 (at the end of drug infusion), 5, 15, 30, 45, 60, 90, 120, 180, 240, 360, 480, 600, and 720 min and were centrifuged at 8000 × g for 1 min. […] After collecting each blood sample, 0.3 mL of heparinized 0.9% NaCl-injectable solution (10 IU/mL) was immediately administered to the carotid artery to prevent blood clotting. At 24 h, the rat’s abdomen was open and the entire gastrointestinal tract was removed, transferred to a beaker with 50 mL of methanol, and cut into small pieces.
At 24 h after drug administration, urine samples were also collected. The metabolic cage was rinsed with 20 mL of distilled water, which was combined with the 24-h urine sample.
(§3) A 50-μL aliquot of biological sample was mixed with 1 μL hydrocortisone (5 mg/mL); then, 20 μL of 20% ammonia solution was added, mixed with a vortex-mixer (Scientific Industries, Bohemia, NY, USA) for 30 s, and extracted with 750 µL ethyl acetate. The organic layer was collected, evaporated on a thermobath (Eyela, Tokyo, Japan) under a gentle stream of nitrogen gas at 40 °C and redissolved by adding 130 µL 20% acetonitrile, and 50 µL of each reconstituted sample was analyzed by HPLC [12, 22].
(§4) The reconstituted biological samples were filtered through a 0.45-µm filter (Millipore, Billerica, MA, USA) and analyzed with a reversed-phase column (C18; 25 cm × 4.6 mm, 5 µm; Young Jin Biochrom, Seongnam, Korea) using a UV detector at 287 nm. The mobile phase consisted of 10 mM ammonium acetate buffer (pH 5.0) and acetonitrile at a ratio of 69.5:30.5 (v/v) with a flow rate of 1.0 mL/min.
(§5) To estimate pharmacokinetic parameters such as terminal half-life, the apparent volume of distribution at steady state (Vss), area under plasma concentration-time curves from time zero to time infinity (AUC), mean residence time (MRT), and time-averaged total body (CL), and renal (CLR) and nonrenal (CLNR) clearances, standard methods were applied using noncompartmental analysis (WinNonlin, Pharsight Corporation, Mountain View, CA, USA). AUCs were calculated using the trapezoidal rule-extrapolation method. The peak plasma concentration (Cmax) and time that the plasma concentration was peak (Tmax) were directly confirmed from plasma concentration-time curves.

[4] = cited from earlier work
[5] = Pharmacokinetics after oral administration to control, G-ARF and C-ARF rats; format: in vivo, Sprague–Dawley rats; conditions: for CL renal: read-out: CLR (time-averaged renal clearance); for bioavailability: read-out: F (absolute oral bioavailability)
Protocol: as §1, §2
Blood samples (110 µL) were collected through the carotid artery at 0 (prior to drug administration), 5, 15, 30, 45, 60, 90, 120, 180, 240, 360, 480, 600, and 720 min. At 24 h after drug administration, urine and gastrointestinal tract samples were collected and handled similarly to those in the intravenous study.
as §3, §4
as §5, with “curves. To calculate the average values of clearances, terminal half-life, and Vss, the harmonic mean method was applied.” for “curves.”

plasma proteins [6] = conditions: equilibrium dialysis; cited from earlier work
[7] = hepatic microsomes of G-ARF rats, not significantly different
[8] = Sprague-Dawley, rat, plasma, po, 20 mg/kg, C-ARF rats
[9] = Sprague-Dawley, rat, plasma, po, 20 mg/kg, G-ARF rats
[10] = Sprague-Dawley, rat, plasma, po, 20 mg/kg, control rats
[11] = control rats, oral 20 mg/kg, 20 mg/kg

- decrease of Vmax for the disappearance of tofacitinib versus control rats (hepatic microsomes; hepatic microsomes of C-ARF rats, not significantly different): 28.7%
- decrease of CLint for the disappearance of tofacitinib versus control rats (hepatic microsomes; hepatic microsomes of C-ARF rats, significantly lower): 54.4%
- decrease of CLint for the disappearance of tofacitinib versus control rats (hepatic microsomes; [7]): 31.1%
- decrease of Vmax for the disappearance of tofacitinib versus control rats (hepatic microsomes; [7]): 9.52%
- Km values, comparison of groups (hepatic microsomes; hepatic microsomes of control, G-ARF and C-ARF rats): comparable among the three groups
- free fractions in the plasma, comparison of groups (plasma proteins [2]): comparable
- Ae0–24 h (dose excreted in the 24-h urine) ([3]; C-ARF rats, iv 10 mg/kg): 0.458 ± 0.626 % of dose
- GI24 h (dose remaining in the gastrointestinal tract at 24 h) ([3]; C-ARF rats, iv 10 mg/kg): 0.195 ± 0.157 % of dose
- decrease of Ae0–24 h versus control rats ([3]; C-ARF rats, iv 10 mg/kg): 95.2%
- decrease of CL versus control rats ([3]; C-ARF rats, iv 10 mg/kg): 62.3%
- decrease of CLNR versus control rats ([3]; C-ARF rats, iv 10 mg/kg): 57.4%
- decrease of CLR versus control rats ([3]; C-ARF rats, iv 10 mg/kg): 98.6%
- increase of AUC versus control rats ([3]; C-ARF rats, iv 10 mg/kg): 163%
- increase of MRT versus control rats ([3]; C-ARF rats, iv 10 mg/kg): 154%
- increase of terminal half-life versus control rats ([3]; C-ARF rats, iv 10 mg/kg): 240%
- CLR estimated from free (unbound to plasma proteins) fractions in plasma ([3]; C-ARF rats, iv 10 mg/kg): 0.0856 mL/min/kg
- Ae0–24 h (dose excreted in the 24-h urine) ([3]; G-ARF rats, iv 10 mg/kg): 5.92 ± 2.76 % of dose
- GI24 h (dose remaining in the gastrointestinal tract at 24 h) ([3]; G-ARF rats, iv 10 mg/kg): 0.00919 ± 0.0225 % of dose
- decrease of Ae0–24 h versus control rats ([3]; G-ARF rats, iv 10 mg/kg): 37.7%
- decrease of CL versus control rats ([3]; G-ARF rats, iv 10 mg/kg): 37.7%
- decrease of CLNR versus control rats ([3]; G-ARF rats, iv 10 mg/kg): 33.2%
- decrease of CLR versus control rats ([3]; G-ARF rats, iv 10 mg/kg): 69.5%
- increase of AUC versus control rats ([3]; G-ARF rats, iv 10 mg/kg): 64.0%
- increase of MRT versus control rats ([3]; G-ARF rats, iv 10 mg/kg): 96.7%
- increase of terminal half-life versus control rats ([3]; G-ARF rats, iv 10 mg/kg): 78.7%
- CLR estimated from free (unbound to plasma proteins) fractions in plasma ([3]; G-ARF rats, iv 10 mg/kg): 1.83 mL/min/kg
- MRT ([3]; C-ARF rats): 69.1 min
- clearance ([3]; C-ARF rats): 14.7 ± 2.29 mL/min/kg
- CL renal ([3]; C-ARF rats): 0.0679 ± 0.0917 mL/min/kg
- half-life ([3]; C-ARF rats): 134 ± 40.9 min
- Vd ([3]; C-ARF rats): 1 ± 0.558 L/kg
- AUC ([3]; C-ARF rats): 11600 ng·h/mL
- MRT ([3]; G-ARF rats): 53.5 min
- clearance ([3]; G-ARF rats): 24.3 ± 6.95 mL/min/kg
- CL renal ([3]; G-ARF rats): 1.45 ± 1.54 mL/min/kg
- half-life ([3]; G-ARF rats): 70.4 ± 29.6 min
- Vd ([3]; G-ARF rats): 1.17 ± 0.519 L/kg
- AUC ([3]; G-ARF rats): 7220 ng·h/mL
- MRT ([3]; control rats): 27.2 min
- clearance ([3]; control rats): 39 ± 7.97 mL/min/kg
- half-life ([3]; control rats): 39.4 ± 11.3 min
- Vd ([3]; control rats): 1.04 ± 0.402 L/kg
- AUC ([3]; control rats): 4400 ng·h/mL
- Ae0–24 h (dose excreted in the 24-h urine) ([3]; control rats, iv 10 mg/kg): 9.51 ± 0.879 % of dose
- CLR (time-averaged renal clearance) ([3]; control rats, iv 10 mg/kg): 4.75 ± 1.28 mL/min/kg
- GI24 h (dose remaining in the gastrointestinal tract at 24 h) ([3]; control rats, iv 10 mg/kg): 0.153 ± 0.306 % of dose
- CLR estimated from free (unbound to plasma proteins) fractions in plasma ([3]; control rats, iv 10 mg/kg): 5.99 mL/min/kg
- Ae0–24 h (dose excreted in the 24-h urine) ([5]; C-ARF rats, oral 20 mg/kg): 1.16 ± 1.37 % of dose
- decrease of Ae0–24 h versus control rats ([5]; C-ARF rats, oral 20 mg/kg): 81.3%
- increase of AUC versus control rats ([5]; C-ARF rats, oral 20 mg/kg): 247%
- increase of Cmax versus control rats ([5]; C-ARF rats, oral 20 mg/kg): 141%
- Ae0–24 h (dose excreted in the 24-h urine) ([5]; G-ARF rats, oral 20 mg/kg): 4.82 ± 3.06 % of dose
- decrease of Ae0–24 h versus control rats ([5]; G-ARF rats, oral 20 mg/kg): 22.4%
- decrease of CLR versus control rats ([5]; G-ARF rats, oral 20 mg/kg): 69.8%
- increase of AUC versus control rats ([5]; G-ARF rats, oral 20 mg/kg): 142%
- increase of Cmax versus control rats ([5]; G-ARF rats, oral 20 mg/kg): 198%
- GI24 h (dose remaining in the gastrointestinal tract at 24 h) ([5]; G-ARF rats, oral 20 mg/kg, 20 mg/kg): 1.27 % of dose and 1.27 ± 1.72 % of dose
- AUC [5, 8]: 12500 ng·h/mL
- Tmax [5, 8]: 41.3 min
- CL renal [5, 8]: 0.3 ± 0.495 mL/min/kg
- Cmax ([5]; Sprague-Dawley, rat, plasma, po, 20 mg/kg, C-ARF rats, read-out: Cmax): 4200 ± 3030 ng/mL
- bioavailability [5, 8]: 54.3%
- AUC [5, 9]: 8750 ng·h/mL
- Tmax [5, 9]: 30.8 min
- CL renal [5, 9]: 1.71 ± 0.871 mL/min/kg
- Cmax ([5]; Sprague-Dawley, rat, plasma, po, 20 mg/kg, G-ARF rats, read-out: Cmax): 5180 ± 2590 ng/mL
- bioavailability [5, 9]: 60.7%
- AUC [5, 10]: 3620 ng·h/mL
- Tmax [5, 10]: 71.9 min
- CL renal [5, 10]: 5.66 ± 1.03 mL/min/kg
- bioavailability [5, 10]: 41.3%
- GI24 h ([5]; across control, G-ARF and C-ARF rats, oral 20 mg/kg): less than 1.27 % of oral dose
- Cmax ([5]; control rats, oral 20 mg/kg): 1740 ± 606 ng/mL
- Ae0–24 h (dose excreted in the 24-h urine) [5, 11]: 6.21 % of dose and 6.21 ± 1.12 % of dose
SMILES: C[C@@H]1CCN(C(=O)CC#N)C[C@@H]1N(C)c1ncnc2[nH]ccc12 [tofacitinib, Tofacitinib]
- dose proportionality of AUCs [1]: not dose proportional
- half-life ([4]; healthy volunteers, oral 10 mg): 192 min
- oral dose bound to plasma protein ([4]; healthy volunteers, oral 10 mg): Approximately 40%
- volume of distribution ([4]; healthy volunteers, oral 10 mg): 87 L
- Absolute oral bioavailability (F) ([4]; human): approximately 74%
- GI24 h (dose remaining in the gastrointestinal tract at 24 h) ([5]; C-ARF rats, oral 20 mg/kg, 20 mg/kg): 0.505 % of dose and 0.505 ± 0.535 % of dose
- GI24 h (dose remaining in the gastrointestinal tract at 24 h) [5, 11]: 0.231 % of dose and 0.231 ± 0.235 % of dose
- plasma protein binding (plasma proteins [6]): 20.7%
